Laboratory results from US20050282757A1, “Peptide boronic acid compounds useful in anticoagulation” (Trigen Limited, priority 2002, published 2005).

Legend:
Plasmin = Plasmin (Homo sapiens, UniProt P00747); test: Plasmin inhibition, Method B (Example 52); type: biochemical; conditions: Plasmin relative to Thrombin
Experimental: 50 μl Plasmin (75 ng/ml in assay buffer) and 20 μl vehicle or compound solution were added to 110 μl assay buffer (100 mM Na orthophosphate (80% Na2HPO4 and 20% NaH2PO4), 200 mM NaCl, 0.5% PEG 6000, 0.02% Na azide, pH 7.5) and incubated for 5 minutes at 37° C.

[1] = Solubility of TRI 50c monosodium salt at different pH values; type: physicochemical
Experimental: It may be desirable to make aqueous solutions of boronic acid drugs for administering them. […] However, a solution with a pH of 9.5 may be unacceptable or undesirable. Accordingly, a pharmaceutically acceptable organic acid may be included in the particulate formulation in an amount selected to reduce the pH to a value at which the solution is more acceptable but at which a solution of drinkable quantity (e.g. about 50 ml to about 150 ml) may be formed by reconstituting the particulate formulation. As the organic acid may be mentioned citric acid, tartaric acid or malic acid, for example. In many instances, citric acid is chosen.
In a first series of experiments, this amount of the salt was dissolved in 50 ml water to form a solution of approximately pH 9.5. Dilute aqueous HCl was added to determine how much the pH could be reduced before precipitation occurred.
In a second series of experiments, the same amount of the salt was dissolved in 150 ml water, and citric acid was added. […] Since acid solutions tend to be more palatable than alkaline ones, and citric acid is a common flavouring agent, this behaviour of the salt is highly beneficial. […] In general, it is contemplated that the boronate will be formulated to form a reconstituted solution having a pH of from 4 to 8, e.g. 4 to 7, optionally 5 to 6.

[2] = Stability assay before and after drying, HPLC-PDA (Example 34); type: physicochemical; conditions: for Amount: 5 mg in 5 mL
Experimental: An assay of TRI 50c and its sodium and lysine salts before and after drying.
For sample analysis, 5 mg of dried and non-dried material was weighed in a 5 mL volumetric flask and dissolved in 1 mL acetonitrile and filled up with demineralised water to 5 mL.
The quantitative evaluation was performed using an HPLC-PDA method.

thrombin time and APTT = test: Intravenous administration in beagle dogs, PK/PD (Example 36); type: in vivo; conditions: 1.0 mg/kg i.v.; for thrombin time at pharmacodynamic C max: 2 minutes post dose, base line 14.3 seconds, monosodium salt
Experimental: Blood samples were taken into 3.8% tri-sodium citrate (1+8) at pre dose, 2, 5, 10, 20, 30, minutes post dose and then at 1, 2, 3, 4, 6, 8, 12 and 24 hours post dose. Plasma was prepared by centrifugation and frozen at minus 20° C. pending analysis.

thrombin time (TT) = test: Intravenous administration into humans (Examples 40 and 46); type: in vivo
Experimental: The test consisted of three groups, each of six males. From each group 5 men were given the active ingredient and 1 was given a placebo.
Total I.V. administered doses were: • 82 mg (7 mg intravenous bolus (over 30s) followed by an infusion of 25 mg/h for 3 hours). • 130 mg (10 mg intravenous bolus (over 30s) followed by an infusion of 40 mg/h for 3 hours). • 120 mg (by infusion of 40 mg/h for 3 hours). […] Within 30 minutes after cessation of infusion there was a fall to a level at which clinically significant anticoagulation is not expected.

[3] = test system: dynamic coagulation markers; test: Simulated mitral valve repair on hypothermic CPB in dogs (Example 48); type: in vivo, beagle dogs; conditions: intravenous
Experimental: Following a dose ranging study in conscious dogs, six beagle dogs were placed on CPB and underwent a simulated mitral valve repair. A range of dynamic coagulation markers were measured, including thrombin clotting time (TT), activated partial thromboplastin time (APTT), activated clotting time (ACT), ecarin clotting time (ECT), whole blood thrombin clotting time, platelet counts and function tests. In addition, pre and post-operative echocardiograms and intra-operative blood loss were evaluated. […] By virtue of its predictable anticoagulant efficacy and controlled duration of action, TGN 255 offers potential in on pump and off pump coronary bypass procedures.

[4] = Comparative storage stability of sodium and calcium salts (Example 49); type: physicochemical; conditions: for Tri50c (w/w %, LOD corr.): corrected for loss on drying
Source text: In both studies the active pharmaceutical ingredient was stored in grip sealed double bags within a PE/PP screw cap closed cylinder.

[5] = Excretion of administered dose; conditions: in vivo
Source text: It will be appreciated that such short duration of action (rapid offset of activity) achieved by a boronic acid is well suited for the prevention of thrombosis in intermittent apheresis procedures, and that oral administration is particularly useful in the case of elective intermittent apheresis procedures. In one class of embodiments, the apheresis procedure is haemodialysis (strictly CIHD); in another, the procedure is not haemodialysis.

[6] = dry (1 week in desiccator over phosphorus pentoxide)

Sequence of Plasmin (P00747 581-810 limits assumed, species assumed): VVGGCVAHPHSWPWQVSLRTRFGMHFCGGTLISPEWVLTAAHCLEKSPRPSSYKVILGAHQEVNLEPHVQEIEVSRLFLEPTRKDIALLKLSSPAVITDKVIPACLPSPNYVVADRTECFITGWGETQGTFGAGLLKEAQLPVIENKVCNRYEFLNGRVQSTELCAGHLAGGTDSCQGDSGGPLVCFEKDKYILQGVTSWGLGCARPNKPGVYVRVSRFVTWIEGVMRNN
Sequence of Plasmin (P00747 97-580 limits assumed, species assumed): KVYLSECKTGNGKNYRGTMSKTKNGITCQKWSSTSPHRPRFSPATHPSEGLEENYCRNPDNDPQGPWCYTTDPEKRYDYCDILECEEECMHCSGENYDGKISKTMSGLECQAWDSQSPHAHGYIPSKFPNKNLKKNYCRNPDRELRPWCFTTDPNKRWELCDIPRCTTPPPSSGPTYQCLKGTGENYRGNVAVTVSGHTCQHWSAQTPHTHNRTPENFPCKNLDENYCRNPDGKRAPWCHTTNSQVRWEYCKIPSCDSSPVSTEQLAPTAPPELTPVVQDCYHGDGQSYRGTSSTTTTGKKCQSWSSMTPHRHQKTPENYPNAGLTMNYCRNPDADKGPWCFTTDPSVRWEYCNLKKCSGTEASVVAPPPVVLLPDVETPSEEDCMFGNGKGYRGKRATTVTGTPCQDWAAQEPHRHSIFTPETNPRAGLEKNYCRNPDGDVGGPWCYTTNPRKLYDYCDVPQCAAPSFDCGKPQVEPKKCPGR

COCCC[C@H](NC(=O)[C@@H]1CCCN1C(=O)[C@@H](Cc1ccc(F)cc1)NC(=O)OCc1ccccc1)B([O-])O.[Na+] [TRI 50f]
Selectivity (Plasmin): >1000

COCCC[C@H](NC(=O)[C@@H]1CCCN1C(=O)[C@@H](Cc1ccccc1)NC(=O)OCc1ccccc1)B(O)O.[Na+] [TRI 50c monosodium salt, Cbz-(R)-Phe-(S)-Pro-(R)-Mpg-B(OH)2 monosodium salt]
concentration of boronate salt solution that can be formed ([1]; pH of about 9.5): up to 600 mg/ml
pH below which the salt tended to precipitate ([1]; salt equivalent to 600 mg TRI 50c in 50 ml water, dilute aqueous HCl added): below 9
pH reached before precipitation occurred ([1]; salt equivalent to 600 mg TRI 50c in 150 ml water, citric acid added): 3.7-3.8
Purity [2, 6]: 98.81 % area
Amount [2, 6]: 1024 µg/mL
Purity ([2]; non-dried): 98.61 % area
Amount ([2]; non-dried): 1005.8 µg/mL
thrombin time at pharmacodynamic C max (thrombin time and APTT; listed as TRI 50c sodium salt): 154 s
thrombin time at pharmacodynamic C max (thrombin time and APTT): 154.4 s
Thrombin time (thrombin time and APTT; one hour post dose): 26 s
elevation in the APTT (thrombin time and APTT; post dose): 1.3 times
tolerance (thrombin time and APTT; total duration of the study): tolerated well with no adverse events
Thrombin clotting time elevation above base line (thrombin time and APTT; two minutes following dosing): 10.8 times
APTT post dose (thrombin time and APTT; from 19 seconds): 25 s
time for plasma concentrations of the active principle to return to tolerably low levels (thrombin time (TT); after termination of intravenous administration): ≤ 30 min
time after cessation of infusion to fall to a level at which clinically significant anticoagulation is not expected (thrombin time (TT); i.v. infusion): ≤ 30 min
distribution phase, time after the end of infusion (thrombin time (TT); i.v. infusion for 3 hours): ≤ 30 min
effect on thrombin time (TT) (thrombin time (TT); intravenous infusion): rapid, dose-related increase in the thrombin time (TT)
overall terminal elimination half life (thrombin time (TT); plasma, i.v.): about 4 hours
safety assessments (thrombin time (TT); single i.v. doses 82, 130, 120 mg): No clinically significant findings
adverse clinical events (thrombin time (TT); study period of 24 hours, any dose): no adverse clinical events of either a general or cardiovascular nature
anticoagulation during bypass and surgery [3]: excellent anticoagulation during bypass and surgery with little bleeding
Appearance ([4]; T = 0): Powdery
Color ([4]; T = 0): White
Tri50c (w/w %) ([4]; T = 0): 101.1 w/w %
Tri50c (w/w %, LOD corr.) ([4]; T = 0): 101.5 w/w %
Appearance ([4]; T = 1, 25° C./60% r.h.): powdery
Color ([4]; T = 1, 25° C./60% r.h.): white
Tri50c (w/w %) ([4]; T = 1, 25° C./60% r.h.): 99.5 w/w %
Tri50c (w/w %, LOD corr.) ([4]; T = 1, 25° C./60% r.h.): 103.6 w/w %
Appearance ([4]; T = 1, 40° C./75% r.h.): powdery
Color ([4]; T = 1, 40° C./75% r.h.): white
Tri50c (w/w %) ([4]; T = 1, 40° C./75% r.h.): 90.3 w/w %
Tri50c (w/w %, LOD corr.) ([4]; T = 1, 40° C./75% r.h.): 94.5 w/w %
Appearance ([4]; T = 1, −20° C.): powdery
Color ([4]; T = 1, −20° C.): white
Tri50c (w/w %) ([4]; T = 1, −20° C.): 103.1 w/w %
Tri50c (w/w %, LOD corr.) ([4]; T = 1, −20° C.): 104.3 w/w %
Appearance ([4]; T = 3, 25° C./60% r.h.): powdery
Color ([4]; T = 3, 25° C./60% r.h.): white
Tri50c (w/w %) ([4]; T = 3, 25° C./60% r.h.): 95.3 w/w %
Tri50c (w/w %, LOD corr.) ([4]; T = 3, 25° C./60% r.h.): 100.4 w/w %
Appearance ([4]; T = 3, 40° C./75% r.h.): viscous
Color ([4]; T = 3, 40° C./75% r.h.): brown
Tri50c (w/w %) ([4]; T = 3, 40° C./75% r.h.): 48.6 w/w %
Tri50c (w/w %, LOD corr.) ([4]; T = 3, 40° C./75% r.h.): 52.2 w/w %
Appearance ([4]; T = 3, −20° C.): powdery
Color ([4]; T = 3, −20° C.): white
Tri50c (w/w %) ([4]; T = 3, −20° C.): 102.5 w/w %
Tri50c (w/w %) ([4]; T = 12, 25° C./60% r.h.): 70.5 w/w %
Tri50c (w/w %, LOD corr.) ([4]; T = 12, 25° C./60% r.h.): 71.2 w/w %
administered dose excreted as TRI 50c species (acid and corresponding boronate species) [5]: 14%
